Reference: patent publication US20250340551A1, “SMALL MOLECULE MODULATORS OF STAT6” (Gilead Sciences, Inc., priority 2024, published 2025)

Molecular target: human STAT6 (Homo sapiens (Human), UniProt P42226)
Assay: Surface plasmon resonance assay (Biacore 8K, binding to immobilized STAT6)
Conditions: human STAT6 aa122-658, N-terminal His-tag, CM5 chip, 25° C.; geometric mean; read-out: STAT6 SPR Kd
Procedure: Biacore instruments from the 8K-series (Cytiva) were used, and measurements were performed at 25° C. Human STAT6 (truncated, aa122-658, with N-terminal His-tag, expressed in insect cells) was immobilized in the active flow cells on a CM5 chip using amine-coupling (default settings) at 10 μg/ml in 10 mM acetate buffer pH 5.5, at a contact time of 120-420 sec. and a flow rate of 10 μl/min. Reference flow cells were deactivated using blank immobilization. PBS-P+ (Cytiva) supplemented with 2% DMSO was used as running buffer, and solvent correction was applied. Compounds were tested by multi-cycle kinetics injections using a contact time of 60 sec., dissociation time of up to 300 sec., and a flow rate of 30 μl/min.
Solvent-corrected, reference-subtracted and blank-corrected data was processed and binding isotherms were fitted according to a single report point from each sensorgram (Standard: Late binding (5 sec. before injection end); alternative: Earlier report point according to binding profile). Data fitting was done both with unfixed Rmax and with Rmax fixed to the theoretical value* assuming 1:1 binding to allow processing of data from both weak and strong binders as well as to evaluate binding stoichiometry.
Positive controls were run at the beginning, during, and at the end of the screen to evaluate surface activity.

Chain of human STAT6 (P42226 122-658): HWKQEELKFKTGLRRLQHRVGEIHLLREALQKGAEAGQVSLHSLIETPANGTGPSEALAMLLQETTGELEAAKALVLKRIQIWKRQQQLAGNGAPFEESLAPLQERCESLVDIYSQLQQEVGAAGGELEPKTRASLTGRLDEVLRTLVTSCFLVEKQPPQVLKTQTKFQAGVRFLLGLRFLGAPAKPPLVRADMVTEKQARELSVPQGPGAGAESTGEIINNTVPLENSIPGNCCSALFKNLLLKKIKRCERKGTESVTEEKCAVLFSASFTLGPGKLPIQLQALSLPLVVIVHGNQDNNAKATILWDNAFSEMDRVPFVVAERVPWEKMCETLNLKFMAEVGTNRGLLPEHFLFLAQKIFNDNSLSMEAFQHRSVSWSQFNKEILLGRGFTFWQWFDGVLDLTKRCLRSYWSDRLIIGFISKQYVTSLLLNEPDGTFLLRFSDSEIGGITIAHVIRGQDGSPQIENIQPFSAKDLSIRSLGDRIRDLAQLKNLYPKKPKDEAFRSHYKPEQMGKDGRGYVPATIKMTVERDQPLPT

| Structure (SMILES) | Kd |
| --- | --- |
| CN(C)C(=O)c1ccc(C2CCN(Cc3cc4c(-c5ccc(N)nc5C(F)(F)F)ccnc4n3C)CC2)cc1 [Example 1k17, 4-[1-[[4-[6-Amino-2-(trifluoromethyl)-3-pyridyl]-1-methyl-pyrrolo[2,3-b]pyridin-2-yl]methyl]-4-piperidyl]-N,N-dimethyl-benzamide] | 212 nM |
| CN(C)C(=O)c1ccc(C2CCN(Cc3cc4c(-c5ccc(N)nc5OC(F)(F)F)ccnc4n3C)CC2)cc1 [Example 1k18, 4-[1-[[4-[6-Amino-2-(trifluoromethoxy)-3-pyridyl]-1-methyl-pyrrolo[2,3-b]pyridin-2-yl]methyl]-4-piperidyl]-N,N-dimethyl-benzamide] | 153 nM |
| COc1c(N)ncc(-c2ccnc3c2cc(CN2CCC(c4ccc(C(=O)N(C)C)cc4)CC2)n3C)c1C [Example 1k19, 4-[1-[[4-(6-Amino-5-methoxy-4-methyl-3-pyridyl)-1-methyl-pyrrolo[2,3-b]pyridin-2-yl]methyl]-4-piperidyl]-N,N-dimethyl-benzamide] | 738 nM |
| Cc1nc(-c2ccnc3c2cc(CN2CCC(c4ccc(C(=O)N(C)C)cc4)CC2)n3C)cnc1N [Example 1k20, 4-[1-[[4-(5-Amino-6-methyl-pyrazin-2-yl)-1-methyl-pyrrolo[2,3-b]pyridin-2-yl]methyl]-4-piperidyl]-N,N-dimethyl-benzamide] | 1510 nM |
| CN(C)C(=O)c1ccc(C2CCN(Cc3cc4c(-c5cnc(N)c(C#N)c5)ccnc4n3C)CC2)cc1 [Example 1k21, 4-[1-[[4-(6-Amino-5-cyano-3-pyridyl)-1-methyl-pyrrolo[2,3-b]pyridin-2-yl]methyl]-4-piperidyl]-N,N-dimethyl-benzamide] | 935 nM |
| [2H]C([2H])([2H])N(C(=O)c1ccc(C2CCN(Cc3cc4c(-c5ccc(N)nc5OC)ccnc4n3C)CC2)cc1)C([2H])([2H])[2H] [Example 1k23, 4-[1-[[4-(6-Amino-2-methoxy-3-pyridyl)-1-methyl-pyrrolo[2,3-b]pyridin-2-yl]methyl]-4-piperidyl]-N,N-bis(trideuteriomethyl)benzamide] | 25.5 nM |
| CN(C)C(=O)c1ccc(C2CCN(Cc3cc4c(-c5cnc(N)c(C(F)F)c5)ccnc4n3C)CC2)cc1 [Example 1k24, 4-[1-[[4-[6-Amino-5-(difluoromethyl)-3-pyridyl]-1-methyl-pyrrolo[2,3-b]pyridin-2-yl]methyl]-4-piperidyl]-N,N-dimethyl-benzamide] | 336 nM |
| CN(C)C(=O)c1ccc(C2CCN(Cc3cc4c(-c5cnc(N)c(S(C)(=O)=O)c5)ccnc4n3C)CC2)cc1 [Example 1k25, 4-[1-[[4-(6-Amino-5-methylsulfonyl-3-pyridyl)-1-methyl-pyrrolo[2,3-b]pyridin-2-yl]methyl]-4-piperidyl]-N,N-dimethyl-benzamide] | 6050 nM |
| COC(=O)CNc1ccc(-c2ccnc3c2cc(CN2CCC(c4ccc(C(=O)N(C)C)cc4)CC2)n3C)cn1 [Example 1k26, Methyl 2-[[5-[2-[[4-[4-(dimethylcarbamoyl)phenyl]-1-piperidyl]methyl]-1-methyl-pyrrolo[2,3-b]pyridin-4-yl]-2-pyridyl]amino]acetate] | 16.8 nM |
| CN(C)C(=O)c1ccc(C2CCN(Cc3cc4c(-c5cnc(N)cc5C(F)(F)F)ccnc4n3C)CC2)cc1 [Example 1k27, 4-[1-[[4-[6-Amino-4-(trifluoromethyl)-3-pyridyl]-1-methyl-pyrrolo[2,3-b]pyridin-2-yl]methyl]-4-piperidyl]-N,N-dimethyl-benzamide] | 5030 nM |
| CC(=O)Nc1cc(C)c(-c2ccnc3c2cc(CN2CCC(c4ccc(C(=O)N(C)C)cc4)CC2)n3C)cn1 [Example 1k28, 4-[1-[[4-(6-Acetamido-4-methyl-3-pyridyl)-1-methyl-pyrrolo[2,3-b]pyridin-2-yl]methyl]-4-piperidyl]-N,N-dimethyl-benzamide] | 428 nM |
| Cc1cc(N)ncc1-c1ccnc2c1cc(CN1CCC(c3ccc(C(=O)N(C)C)cc3)CC1)n2C [Example 1k30, 4-[1-[[4-(6-Amino-4-methyl-3-pyridyl)-1-methyl-pyrrolo[2,3-b]pyridin-2-yl]methyl]-4-piperidyl]-N,N-dimethyl-benzamide] | 62.1 nM |
| Cc1cc(-c2ccnc3c2cc(CN2CCC(c4ccc(C(=O)N(C)C)cc4)CC2)n3C)c(C)nc1N [Example 1k31, 4-[1-[[4-(6-Amino-2,5-dimethyl-3-pyridyl)-1-methyl-pyrrolo[2,3-b]pyridin-2-yl]methyl]-4-piperidyl]-N,N-dimethyl-benzamide] | 78.5 nM |
| Cc1cc(N)cc(C)c1-c1ccnc2c1cc(CN1CCC(c3ccc(C(=O)N(C)C)cc3)CC1)n2C [Example 1k32, 4-[1-[[4-(4-Amino-2,6-dimethyl-phenyl)-1-methyl-pyrrolo[2,3-b]pyridin-2-yl]methyl]-4-piperidyl]-N,N-dimethyl-benzamide] | 1230 nM |
| COc1cc(-c2ccnc3c2cc(CN2CCC(c4ccc(C(=O)N(C)C)cc4)CC2)n3C)c(C)nc1N [Example 1k33, 4-[1-[[4-(6-Amino-5-methoxy-2-methyl-3-pyridyl)-1-methyl-pyrrolo[2,3-b]pyridin-2-yl]methyl]-4-piperidyl]-N,N-dimethyl-benzamide] | 2770 nM |
| CN(C)C(=O)c1ccc(C2CCN(Cc3cc4c(-c5cnc(N)c(CO)c5)ccnc4n3C)CC2)cc1 [Example 1k34, 4-[1-[[4-[6-Amino-5-(hydroxymethyl)-3-pyridyl]-1-methyl-pyrrolo[2,3-b]pyridin-2-yl]methyl]-4-piperidyl]-N,N-dimethyl-benzamide] | 245 nM |
| CCOC(=O)c1nc(N)ccc1-c1ccnc2c1cc(CN1CCC(c3ccc(C(=O)N(C)C)cc3)CC1)n2C [Example 1k35, Ethyl 6-amino-3-[2-[[4-[4-(dimethylcarbamoyl)phenyl]-1-piperidyl]methyl]-1-methyl-pyrrolo[2,3-b]pyridin-4-yl]pyridine-2-carboxylate] | 11 nM |
| CN(C)C(=O)c1ccc(C2CCN(Cc3cc4c(-c5cnc(N)c(C(F)(F)F)c5)ccnc4n3C)CC2)cc1 [Example 1k36, 4-[1-[[4-[6-Amino-5-(trifluoromethyl)-3-pyridyl]-1-methyl-pyrrolo[2,3-b]pyridin-2-yl]methyl]-4-piperidyl]-N,N-dimethyl-benzamide] | 1120 nM |
| [2H]C([2H])([2H])N(C(=O)c1ccc(C2CCN(Cc3cc4c(-c5ccc(NC)nc5)ccnc4n3C)CC2)cc1)C([2H])([2H])[2H] [Example 1k38, 4-[1-[[1-Methyl-4-[6-(methylamino)-3-pyridyl]pyrrolo[2,3-b]pyridin-2-yl]methyl]-4-piperidyl]-N,N-bis(trideuteriomethyl)benzamide] | 27.7 nM |
| Cc1nc(N)cnc1-c1ccnc2c1cc(CN1CCC(c3ccc(C(=O)N(C)C)cc3)CC1)n2C [Example 1k39, 4-[1-[[4-(5-Amino-3-methyl-pyrazin-2-yl)-1-methyl-pyrrolo[2,3-b]pyridin-2-yl]methyl]-4-piperidyl]-N,N-dimethyl-benzamide] | 2280 nM |
| CC(=O)Nc1ccc(-c2ccnc3c2cc(CN2CCC(c4ccc(C(=O)N(C)C)cc4)CC2)n3C)c(C)n1 [Example 1k40, 4-[1-[[4-(6-Acetamido-2-methyl-3-pyridyl)-1-methyl-pyrrolo[2,3-b]pyridin-2-yl]methyl]-4-piperidyl]-N,N-dimethyl-benzamide] | 475 nM |
| CN(C)C(=O)c1ccc(C2CCN(Cc3cc4c(-c5cnc(N)nc5C#N)ccnc4n3C)CC2)cc1 [Example 1k41, 4-[1-[[4-(2-Amino-4-cyano-pyrimidin-5-yl)-1-methyl-pyrrolo[2,3-b]pyridin-2-yl]methyl]-4-piperidyl]-N,N-dimethyl-benzamide] | 188 nM |
| Cc1c(-c2ccnc3c2cc(CN2CCC(c4ccc(C(=O)N(C)C)cc4)CC2)n3C)cnc(N)c1C#N [Example 1k42, 4-[1-[[4-(6-Amino-5-cyano-4-methyl-3-pyridyl)-1-methyl-pyrrolo[2,3-b]pyridin-2-yl]methyl]-4-piperidyl]-N,N-dimethyl-benzamide] | 731 nM |
| [2H]C([2H])([2H])n1c(CN2CCC(c3ccc(C(=O)N(C)C)cc3)CC2)cc2c(-c3ccc(N)nc3C#N)ccnc21 [Example 1k45, 4-[1-[[4-(6-Amino-2-cyano-3-pyridyl)-1-(trideuteriomethyl)pyrrolo[2,3-b]pyridin-2-yl]methyl]-4-piperidyl]-N,N-dimethyl-benzamide] | 27.7 nM |
| CN(C)C(=O)c1ccc(C2CCN(Cc3cc4c(-c5cnc(N)c(N(C)C)c5)ccnc4n3C)CC2)cc1 [Example 1k47, 4-[1-[[4-[6-Amino-5-(dimethylamino)-3-pyridyl]-1-methyl-pyrrolo[2,3-b]pyridin-2-yl]methyl]-4-piperidyl]-N,N-dimethyl-benzamide] | 1210 nM |
| CN(C)C(=O)c1ccc(C2CCN(Cc3cc4c(-c5cnc(N)c(OC(F)(F)F)c5)ccnc4n3C)CC2)cc1 [Example 1k48, 4-[1-[[4-[6-Amino-5-(trifluoromethoxy)-3-pyridyl]-1-methyl-pyrrolo[2,3-b]pyridin-2-yl]methyl]-4-piperidyl]-N,N-dimethyl-benzamide] | 8230 nM |
| CN(C)C(=O)c1ccc(C2CCN(Cc3cc4c(-c5cnc(N)cc5CO)ccnc4n3C)CC2)cc1 [Example 1k49, 4-[1-[[4-[6-Amino-4-(hydroxymethyl)-3-pyridyl]-1-methyl-pyrrolo[2,3-b]pyridin-2-yl]methyl]-4-piperidyl]-N,N-dimethyl-benzamide] | 148 nM |
